Results from US10617668B2, “Pharmaceutical formulations” (Janssen Pharmaceutica NV, priority 2010, dated 2020).

Assay: In vivo pharmacokinetics of oral formulations in healthy human subjects
Procedure: The three dose levels included 25 mg (representative formulation listed in Table 1.2), 200 mg (representative formulation listed in Table 1.3) and 400 mg of the drug compound.

Cc1ccc(C2O[C@H](CO)[C@@H](O)[C@H](O)[C@H]2O)cc1Cc1ccc(-c2ccc(F)cc2)s1 (stereo partly drawn) [compound of Formula (I-S)]
mean AUCinf values across formulations and food conditions (all doses (25 mg, 200 mg and 400 mg), fed or fasting): comparable
effect of food on the extent of bioavailability (human subjects, fed versus fasted): no significant effect
half-life (human, plasma, oral, all treatment regimens regardless of formulation and food intake, read-out: mean t1/2): 480 to 720 min
